Assay results as given in ChEMBL document CHEMBL1140602, “A simple, yet highly accurate, QSAR model captures the complement inhibitory activity of compstatin” (Bioorg Med Chem, 2007).
Positions of bridges follow the written chain, without caps; N, C: chain ends. Non-standard residues stand in square brackets, D forms with d. Residues, ends and D or L forms follow the SMILES beside them. Abu = CC[C@H](N)C(=O)O

Experiment: Inhibition of C3b activation relative to compstatin

SMILES	logIC50
CC[C@H](C)[C@H](NC(C)=O)C(=O)N[C@H]1CSSC[C@@H](C(=O)N[C@H](C(N)=O)[C@@H](C)O)NC(=O)[C@H](CCCNC(=N)N)NC(=O)[C@H](Cc2cnc[nH]2)NC(=O)[C@H](Cc2cnc[nH]2)NC(=O)CNC(=O)[C@H](Cc2c[nH]c3ccccc23)NC(=O)[C@H](CC(=O)O)NC(=O)[C@H](CCC(N)=O)NC(=O)[C@H](C(C)C)NC(=O)[C@H](CC(C)C)NC1=O (Ac-ICLVQDWGHHRCT-NH2; disulfide 2-12)	0.079
CC[C@H](C)[C@H](NC(=O)[C@@H]1CSSC[C@H](NC(=O)[C@@H](NC(C)=O)[C@@H](C)CC)C(=O)N[C@@H](C(C)C)C(=O)N[C@@H](C)C(=O)N[C@@H](CCC(N)=O)C(=O)N[C@@H](CC(=O)O)C(=O)N[C@@H](Cc2c[nH]c3ccccc23)C(=O)NCC(=O)N[C@@H](C)C(=O)N[C@@H](Cc2cnc[nH]2)C(=O)N[C@@H](CCCNC(=N)N)C(=O)N1)C(N)=O (Ac-ICVAQDWGAHRCI-NH2; disulfide 2-12)	0.477
CC[C@H](C)[C@H](NC(C)=O)C(=O)N[C@H]1CSSC[C@@H](C(=O)N[C@H](C(N)=O)[C@@H](C)O)NC(=O)[C@H](CCCNC(=N)N)NC(=O)[C@H](Cc2cnc[nH]2)NC(=O)[C@H](Cc2cnc[nH]2)NC(=O)CNC(=O)[C@H](Cc2c[nH]c3ccccc23)NC(=O)[C@H](CC(=O)O)NC(=O)[C@H](CCC(N)=O)NC(=O)[C@H](Cc2ccccc2)NC(=O)[C@H](C(C)C)NC1=O (Ac-ICVFQDWGHHRCT-NH2; disulfide 2-12)	0.721
CC[C@H](C)[C@H](NC(C)=O)C(=O)N[C@H]1CSSC[C@@H](C(=O)N[C@H](C(N)=O)[C@@H](C)O)NC(=O)[C@H](CCCNC(=N)N)NC(=O)[C@H](Cc2cnc[nH]2)NC(=O)[C@H](Cc2cnc[nH]2)NC(=O)CNC(=O)[C@H](Cc2c[nH]c3ccccc23)NC(=O)[C@H](CC(=O)O)NC(=O)[C@H](CCC(N)=O)NC(=O)[C@H](Cc2cnc[nH]2)NC(=O)[C@H](C(C)C)NC1=O (Ac-ICVHQDWGHHRCT-NH2; disulfide 2-12)	0.708
CC[C@H](C)[C@H](NC(C)=O)C(=O)N[C@H]1CSSC[C@@H](C(=O)N[C@H](C(N)=O)[C@@H](C)O)NC(=O)[C@H](CCCNC(=N)N)NC(=O)[C@H](Cc2cnc[nH]2)NC(=O)[C@H](Cc2cnc[nH]2)NC(=O)CNC(=O)[C@H](Cc2c[nH]c3ccccc23)NC(=O)[C@H](CC(=O)O)NC(=O)[C@H](CCC(N)=O)NC(=O)[C@H](CO)NC(=O)[C@H](C(C)C)NC1=O (Ac-ICVSQDWGHHRCT-NH2; disulfide 2-12)	0.022
CC[C@H](C)[C@H](NC(C)=O)C(=O)N[C@H]1CSSC[C@@H](C(=O)N[C@H](C(N)=O)[C@@H](C)O)NC(=O)[C@H](C)NC(=O)[C@H](Cc2cnc[nH]2)NC(=O)[C@H](Cc2cnc[nH]2)NC(=O)CNC(=O)[C@H](Cc2c[nH]c3ccccc23)NC(=O)[C@H](CC(=O)O)NC(=O)[C@H](CC(N)=O)NC(=O)[C@H](C(C)C)NC(=O)[C@H](C(C)C)NC1=O (Ac-ICVVNDWGHHACT-NH2; disulfide 2-12)	-0.699
CC[C@H](C)[C@H](NC(C)=O)C(=O)N[C@H]1CSSC[C@@H](C(=O)N[C@H](C(N)=O)[C@@H](C)O)NC(=O)[C@H](CCCNC(=N)N)NC(=O)[C@H](Cc2cnc[nH]2)NC(=O)[C@H](Cc2cnc[nH]2)NC(=O)CNC(=O)[C@H](Cc2c[nH]c3ccccc23)NC(=O)[C@H](CC(=O)O)NC(=O)[C@H](CC(N)=O)NC(=O)[C@H](C(C)C)NC(=O)[C@H](C(C)C)NC1=O (Ac-ICVVNDWGHHRCT-NH2; disulfide 2-12)	0.456
CC[C@H](C)[C@H](NC(C)=O)C(=O)N[C@H]1CSSC[C@@H](C(=O)N[C@H](C(N)=O)[C@@H](C)O)NC(=O)[C@H](C)NC(=O)[C@H](Cc2cnc[nH]2)NC(=O)[C@H](C)NC(=O)CNC(=O)[C@H](Cc2c[nH]c3ccccc23)NC(=O)[C@H](CC(=O)O)NC(=O)[C@H](CCC(N)=O)NC(=O)[C@H](C(C)C)NC(=O)[C@H](C(C)C)NC1=O (Ac-ICVVQDWGAHACT-NH2; disulfide 2-12)	0.084
CC[C@H](C)[C@H](NC(C)=O)C(=O)N[C@H]1CSSC[C@@H](C(=O)N[C@H](C(N)=O)[C@@H](C)O)NC(=O)[C@H](CCCNC(=N)N)NC(=O)[C@H](Cc2cnc[nH]2)NC(=O)[C@H](C)NC(=O)CNC(=O)[C@H](Cc2c[nH]c3ccccc23)NC(=O)[C@H](CC(=O)O)NC(=O)[C@H](CCC(N)=O)NC(=O)[C@H](C(C)C)NC(=O)[C@H](C(C)C)NC1=O (Ac-ICVVQDWGAHRCT-NH2; disulfide 2-12)	0.617
CC[C@H](C)[C@H](NC(=O)[C@@H]1CSSC[C@H](NC(=O)[C@@H](NC(C)=O)[C@@H](C)CC)C(=O)N[C@@H](C(C)C)C(=O)N[C@@H](C(C)C)C(=O)N[C@@H](CCC(N)=O)C(=O)N[C@@H](CC(=O)O)C(=O)N[C@@H](Cc2c[nH]c3ccccc23)C(=O)NCC(=O)N[C@@H](Cc2cnc[nH]2)C(=O)N[C@@H](Cc2cnc[nH]2)C(=O)N[C@@H](CCCNC(=N)N)C(=O)N1)C(N)=O (Ac-ICVVQDWGHHRCI-NH2; disulfide 2-12)	0.574
CC[C@@H]1NC(=O)CNC(=O)[C@H](Cc2c[nH]c3ccccc23)NC(=O)[C@H](CC(=O)O)NC(=O)[C@H](CCC(N)=O)NC(=O)[C@H](Cc2c[nH]c3ccccc23)NC(=O)[C@H](C(C)C)NC(=O)[C@@H](NC(=O)[C@@H](NC(C)=O)[C@@H](C)CC)CSSC[C@@H](C(=O)N[C@H](C(N)=O)[C@@H](C)O)NC(=O)[C@H](CCCNC(=N)N)NC(=O)[C@H](Cc2cnc[nH]2)NC1=O (Ac-ICVWQDWG[Abu]HRCT-NH2; disulfide 2-12)	1.55
CSCC[C@H](NC(C)=O)C(=O)N[C@H]1CSSC[C@@H](C(=O)N[C@@H](Cc2ccccc2)C(N)=O)NC(=O)[C@H](CCCNC(=N)N)NC(=O)[C@H](Cc2cnc[nH]2)NC(=O)CNC(=O)CNC(=O)[C@H](Cc2c[nH]c3ccccc23)NC(=O)[C@H](CC(=O)O)NC(=O)[C@H](CCC(N)=O)NC(=O)[C@H](Cc2cnc[nH]2)NC(=O)[C@H](C(C)C)NC1=O (Ac-MCVHQDWGGHRCF-NH2; disulfide 2-12)	-0.863
CC(=O)N[C@@H](CCCNC(=N)N)C(=O)N[C@H]1CSSC[C@@H](C(=O)N[C@H](C(N)=O)[C@@H](C)O)NC(=O)[C@H](CCCNC(=N)N)NC(=O)[C@H](Cc2cnc[nH]2)NC(=O)[C@H](Cc2cnc[nH]2)NC(=O)CNC(=O)[C@H](Cc2c[nH]c3ccccc23)NC(=O)[C@H](CC(=O)O)NC(=O)[C@H](CCC(N)=O)NC(=O)[C@H](C(C)C)NC(=O)[C@H](C(C)C)NC1=O (Ac-RCVVQDWGHHRCT-NH2; disulfide 2-12)	0.176
CC(C)[C@@H]1NC(=O)[C@H](C(C)C)NC(=O)[C@@H](N)CSSC[C@@H](C(=O)O)NC(=O)[C@H](CCCNC(=N)N)NC(=O)[C@H](Cc2cnc[nH]2)NC(=O)[C@H](C)NC(=O)CNC(=O)[C@H](Cc2c[nH]c3ccccc23)NC(=O)[C@H](CC(=O)O)NC(=O)[C@H](CCC(N)=O)NC1=O (H-CVVQDWGAHRC-OH; disulfide 1-11)	-0.097
CC(C)[C@@H]1NC(=O)[C@H](C(C)C)NC(=O)[C@@H](N)CSSC[C@@H](C(=O)O)NC(=O)[C@H](CCCNC(=N)N)NC(=O)[C@H](C)NC(=O)[C@H](Cc2cnc[nH]2)NC(=O)CNC(=O)[C@H](Cc2c[nH]c3ccccc23)NC(=O)[C@H](CC(=O)O)NC(=O)[C@H](CCC(N)=O)NC1=O (H-CVVQDWGHARC-OH; disulfide 1-11)	-0.79
